Experimental data as given in article PMC7656694 (Biotechnology for Biofuels, 2020).
Positions count from the first letter of the chain named. Numbers in names are those of the source.

Legend:
SmBdh = molecular target: T1, SmBdh (Serratia marcescens, UniProt H9XP47); experiment: X-ray crystal structure, […] A; assay type: binding
T1 construct: gene budC; full length, N-terminal His6 and TEV site after start codon (cleavage not described), codon-optimized, expressed in Zymomonas mobilis 9C; tetramer, site completed by Gln247 of the symmetry-related chain
T1 sequence (H9XP47 2-251): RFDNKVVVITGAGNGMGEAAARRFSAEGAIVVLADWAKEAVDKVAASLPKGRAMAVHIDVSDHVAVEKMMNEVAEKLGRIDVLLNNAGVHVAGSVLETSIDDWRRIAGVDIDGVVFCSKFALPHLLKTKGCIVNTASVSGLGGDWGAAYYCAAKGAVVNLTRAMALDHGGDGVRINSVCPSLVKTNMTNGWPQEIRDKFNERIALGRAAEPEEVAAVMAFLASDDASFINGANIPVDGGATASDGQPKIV

EcBdh = molecular target: T2, EcBdh (Enterobacter cloacae, UniProt G8FSA9); experiment: NADH consumption at […] nm; assay type: biochemical; conditions: 0.25 mM NADH, 25 mM acetoin, 100 mM potassium phosphate pH 7.0; racemic acetoin
T2 construct: gene dar; full length, N-terminal His6 and TEV site (cleavage not described), gene amplified from Z. mobilis strain BC-11B, expressed in Zymomonas mobilis 9C, purified
T2 sequence (G8FSA9 1-256): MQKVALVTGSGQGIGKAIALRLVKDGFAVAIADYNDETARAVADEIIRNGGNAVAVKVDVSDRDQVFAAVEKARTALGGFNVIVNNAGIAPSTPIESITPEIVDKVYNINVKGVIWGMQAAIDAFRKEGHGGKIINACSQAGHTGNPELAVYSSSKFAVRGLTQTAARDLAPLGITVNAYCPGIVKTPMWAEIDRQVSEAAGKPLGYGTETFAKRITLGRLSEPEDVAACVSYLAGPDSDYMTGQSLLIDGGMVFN

crystal structure = molecular target: the molecule itself; experiment: crystal structure

CC(=O)[C@@H](C)O [(3R)-acetoin]
X-ray crystal structure, 2.0 A (SmBdh; NAD+ bound, active site of closed molecule A, modelled together with (3S)-acetoin from racemate): both (3R)- and (3S)-acetoin molecules bound in the pocket

NC(=O)c1ccc[n+]([C@@H]2O[C@H](COP(=O)(O)OP(=O)(O)OC[C@H]3O[C@@H](n4cnc5c(N)ncnc54)[C@H](O)[C@@H]3O)[C@@H](O)[C@H]2O)c1 [NAD^+]
X-ray crystal structure, 2.0 A (SmBdh; cofactor site of closed molecule A, with acetoin): locate NAD ^+ cofactor molecule and acetoin molecules in protein molecule A

NC(=O)C1=CN([C@@H]2O[C@H](COP(=O)(O)OP(=O)(O)OC[C@H]3O[C@@H](n4cnc5c(N)ncnc54)[C@H](O)[C@@H]3O)[C@@H](O)[C@H]2O)C=CC1 [NADH]
NADH consumption at 340 nm (EcBdh): subjected to activity analysis using the NADH consumption assay

CC(=O)C(C)O (racemic) [acetoin]
NADH consumption at 340 nm (EcBdh): Proteins were expressed in the Z. mobilis 9C strain, purified to homogeneity

Nc1ncnc2c1ncn2[C@@H]1O[C@H](COP(=O)(O)OP(=O)(O)O)[C@@H](O)[C@H]1O [ADP]
X-ray crystal structure, 2.0 A (SmBdh; cofactor site of open molecule B, only NAD+ was added in crystallization): the corresponding space is occupied by only adenine diphosphate

CC(=O)[C@H](C)O [(3S)-acetoin]
X-ray crystal structure, 2.0 A (SmBdh; NAD+ bound, active site of closed molecule A, modelled together with (3R)-acetoin from racemate): both (3R)- and (3S)-acetoin molecules bound in the pocket

B1: Serratia marcescens 2,3-butanediol dehydrogenase, wild type (N-term SmBdh) (enzyme, UniProt H9XP47 1-251, looked up)
chain: MRFDNKVVVITGAGNGMGEAAARRFSAEGAIVVLADWAKEAVDKVAASLPKGRAMAVHIDVSDHVAVEKMMNEVAEKLGRIDVLLNNAGVHVAGSVLETSIDDWRRIAGVDIDGVVFCSKFALPHLLKTKGCIVNTASVSGLGGDWGAAYYCAAKGAVVNLTRAMALDHGGDGVRINSVCPSLVKTNMTNGWPQEIRDKFNERIALGRAAEPEEVAAVMAFLASDDASFINGANIPVDGGATASDGQPKIV
notes: tag and TEV site placed immediately after the start codon; also called WT SmBdh; WT SmBDH; source: Z. mobilis strain 9C, purified (HisTrap, size exclusion chromatography)
stoichiometry N (crystal structure): 4

B2: Serratia marcescens 2,3-butanediol dehydrogenase Q247A mutant (enzyme)
chain: B1 chain with Q247A
notes: also called SmBdh Q247A; Q247A SmBdh; source: Z. mobilis strain 9C, purified (HisTrap, size exclusion chromatography)
binding result (crystal structure): binds

B3: Serratia marcescens 2,3-butanediol dehydrogenase Q247A + V139Q double mutant (enzyme)
chain: B1 chain with V139Q, Q247A
notes: also called SmBdh Q247A + V139Q; Q247A + V139Q SmBdh; source: Z. mobilis strain 9C, purified (HisTrap, size exclusion chromatography)
binding result (crystal structure): binds
